Measured values from article PMC4770715, “LIM kinase inhibitors disrupt mitotic microtubule organization and impair tumor cell proliferation” (Oncotarget, 2015).

Key:
Assay in all cases: biochemical
Parameters in all cases: KINOMEscan active-site competition binding, percent of control (100 = no competition)
Settings in all cases: competition binding, percent control
[1] = biological target: T1, ABL1(F317L)-phosphorylated (Homo sapiens, UniProt P00519, F317L)
T1 construct: phosphorylated
Description: (§1) Given the potential for the use of LIMK inhibitors as cancer chemotherapeutics, a high-throughput drug discovery and medicinal chemistry program was undertaken. Details of the screening methodology and description of initial hit matter were described in [38]. […] Details of their chemical synthesis are described in Charles et al.. […] These and additional physiochemical parameters are in Supplemental Table 5. […] Kinases inhibited >25% to 50% have yellow circles, 51% to 75% have orange circles, and >76% have red circles. In each case, the size of the circle is proportional to percentage inhibition. LIMK1 and LIMK2 positions are indicated in blue. Illustration reproduced courtesy of Cell Signaling Technology, Inc. (www.cellsignal.com). B. CRT0105950 structure and kinome selectivity mapping as described above. C.

[2] = biological target: T2, ABL1(T315I)-phosphorylated (Homo sapiens, UniProt P00519, T315I)
T2 construct: phosphorylated
Description: as §1

BIKE = biological target: T3, BIKE (Homo sapiens, UniProt Q9NSY1)
T3 construct: gene BMP2K
Description: as §1

BMPR1A = BMPR1A (Homo sapiens, UniProt P36894)
BMPR1A, sequence (P36894 whole entry): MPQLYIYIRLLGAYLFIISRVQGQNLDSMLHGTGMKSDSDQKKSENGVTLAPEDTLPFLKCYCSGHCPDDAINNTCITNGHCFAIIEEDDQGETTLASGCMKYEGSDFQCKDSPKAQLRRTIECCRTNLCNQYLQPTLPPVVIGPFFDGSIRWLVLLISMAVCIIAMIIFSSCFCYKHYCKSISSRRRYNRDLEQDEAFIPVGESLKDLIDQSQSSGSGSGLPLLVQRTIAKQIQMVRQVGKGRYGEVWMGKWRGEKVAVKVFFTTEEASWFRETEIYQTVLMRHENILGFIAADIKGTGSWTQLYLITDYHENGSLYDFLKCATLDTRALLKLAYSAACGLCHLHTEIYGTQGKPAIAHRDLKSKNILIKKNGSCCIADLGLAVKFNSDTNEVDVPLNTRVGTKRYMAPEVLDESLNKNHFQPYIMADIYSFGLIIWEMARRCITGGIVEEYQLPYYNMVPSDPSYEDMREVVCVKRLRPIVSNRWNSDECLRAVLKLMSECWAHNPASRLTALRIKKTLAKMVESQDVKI
Description: as §1

BRK = biological target: T4, BRK (Homo sapiens, UniProt Q13882)
T4 construct: gene PTK6
Description: as §1

CAMKK1 = CAMKK1 (Homo sapiens, UniProt Q8N5S9)
CAMKK1, sequence (Q8N5S9 whole entry): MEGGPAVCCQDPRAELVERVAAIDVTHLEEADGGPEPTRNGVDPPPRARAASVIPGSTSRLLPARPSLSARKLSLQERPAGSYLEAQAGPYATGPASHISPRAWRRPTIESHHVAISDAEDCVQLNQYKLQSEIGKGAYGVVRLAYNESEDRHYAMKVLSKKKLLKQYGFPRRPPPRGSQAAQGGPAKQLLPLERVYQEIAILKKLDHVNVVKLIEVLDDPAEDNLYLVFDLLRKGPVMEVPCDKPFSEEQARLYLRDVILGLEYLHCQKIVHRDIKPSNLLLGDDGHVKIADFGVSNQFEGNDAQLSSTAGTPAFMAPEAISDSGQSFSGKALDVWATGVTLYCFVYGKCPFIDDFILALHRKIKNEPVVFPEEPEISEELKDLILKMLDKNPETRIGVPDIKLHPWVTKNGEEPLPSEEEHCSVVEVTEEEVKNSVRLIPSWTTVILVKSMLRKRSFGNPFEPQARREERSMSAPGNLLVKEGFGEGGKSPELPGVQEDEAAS
Description: as §1

CDK3 = CDK3 (Homo sapiens, UniProt Q00526)
CDK3, sequence (Q00526 whole entry): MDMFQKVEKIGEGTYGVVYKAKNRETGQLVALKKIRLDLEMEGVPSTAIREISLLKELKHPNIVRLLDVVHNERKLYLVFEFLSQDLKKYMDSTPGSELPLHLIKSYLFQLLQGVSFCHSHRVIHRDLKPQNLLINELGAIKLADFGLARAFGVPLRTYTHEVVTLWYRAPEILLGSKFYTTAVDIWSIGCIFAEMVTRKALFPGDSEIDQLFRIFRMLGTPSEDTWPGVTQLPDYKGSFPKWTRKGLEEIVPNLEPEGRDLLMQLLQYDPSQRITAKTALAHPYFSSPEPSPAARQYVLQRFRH
Description: as §1

EPHA3 = EPHA3 (Homo sapiens, UniProt P29320)
Description: as §1

HIPK2 = HIPK2 (Homo sapiens, UniProt Q9H2X6)
Description: as §1

MAP3K15 = MAP3K15 (Homo sapiens, UniProt Q6ZN16)
Description: as §1

MARK2 = MARK2 (Homo sapiens, UniProt Q7KZI7)
Description: as §1

NEK1 = NEK1 (Homo sapiens, UniProt Q96PY6)
Description: as §1

PHKG1 = PHKG1 (Homo sapiens, UniProt Q16816)
PHKG1, sequence (Q16816 whole entry): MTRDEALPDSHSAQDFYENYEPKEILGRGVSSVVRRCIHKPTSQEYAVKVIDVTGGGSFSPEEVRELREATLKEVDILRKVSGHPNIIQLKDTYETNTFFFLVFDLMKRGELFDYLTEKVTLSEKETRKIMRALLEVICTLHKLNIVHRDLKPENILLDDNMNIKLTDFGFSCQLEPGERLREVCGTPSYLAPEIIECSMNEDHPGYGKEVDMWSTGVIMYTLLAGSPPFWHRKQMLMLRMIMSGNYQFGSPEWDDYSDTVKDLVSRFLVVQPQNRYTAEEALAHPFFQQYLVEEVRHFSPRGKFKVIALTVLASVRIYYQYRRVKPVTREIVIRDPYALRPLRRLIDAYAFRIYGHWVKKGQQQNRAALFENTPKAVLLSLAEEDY
Description: as §1

PKAC-alpha = biological target: T5, PKAC-alpha (Homo sapiens, UniProt P17612)
T5 construct: gene PRKACA
Description: as §1

PRKG1 = PRKG1 (Homo sapiens, UniProt Q13976)
Description: as §1

RIPK2 = RIPK2 (Homo sapiens, UniProt O43353)
Description: as §1

SGK3 = SGK3 (Homo sapiens, UniProt Q96BR1)
Description: as §1

SYK = SYK (Homo sapiens, UniProt P43405)
Description: as §1

TGFBR1 = TGFBR1 (Homo sapiens, UniProt P36897)
Description: as §1

TRPM6 = TRPM6 (Homo sapiens, UniProt Q9BX84)
TRPM6, sequence (Q9BX84 whole entry): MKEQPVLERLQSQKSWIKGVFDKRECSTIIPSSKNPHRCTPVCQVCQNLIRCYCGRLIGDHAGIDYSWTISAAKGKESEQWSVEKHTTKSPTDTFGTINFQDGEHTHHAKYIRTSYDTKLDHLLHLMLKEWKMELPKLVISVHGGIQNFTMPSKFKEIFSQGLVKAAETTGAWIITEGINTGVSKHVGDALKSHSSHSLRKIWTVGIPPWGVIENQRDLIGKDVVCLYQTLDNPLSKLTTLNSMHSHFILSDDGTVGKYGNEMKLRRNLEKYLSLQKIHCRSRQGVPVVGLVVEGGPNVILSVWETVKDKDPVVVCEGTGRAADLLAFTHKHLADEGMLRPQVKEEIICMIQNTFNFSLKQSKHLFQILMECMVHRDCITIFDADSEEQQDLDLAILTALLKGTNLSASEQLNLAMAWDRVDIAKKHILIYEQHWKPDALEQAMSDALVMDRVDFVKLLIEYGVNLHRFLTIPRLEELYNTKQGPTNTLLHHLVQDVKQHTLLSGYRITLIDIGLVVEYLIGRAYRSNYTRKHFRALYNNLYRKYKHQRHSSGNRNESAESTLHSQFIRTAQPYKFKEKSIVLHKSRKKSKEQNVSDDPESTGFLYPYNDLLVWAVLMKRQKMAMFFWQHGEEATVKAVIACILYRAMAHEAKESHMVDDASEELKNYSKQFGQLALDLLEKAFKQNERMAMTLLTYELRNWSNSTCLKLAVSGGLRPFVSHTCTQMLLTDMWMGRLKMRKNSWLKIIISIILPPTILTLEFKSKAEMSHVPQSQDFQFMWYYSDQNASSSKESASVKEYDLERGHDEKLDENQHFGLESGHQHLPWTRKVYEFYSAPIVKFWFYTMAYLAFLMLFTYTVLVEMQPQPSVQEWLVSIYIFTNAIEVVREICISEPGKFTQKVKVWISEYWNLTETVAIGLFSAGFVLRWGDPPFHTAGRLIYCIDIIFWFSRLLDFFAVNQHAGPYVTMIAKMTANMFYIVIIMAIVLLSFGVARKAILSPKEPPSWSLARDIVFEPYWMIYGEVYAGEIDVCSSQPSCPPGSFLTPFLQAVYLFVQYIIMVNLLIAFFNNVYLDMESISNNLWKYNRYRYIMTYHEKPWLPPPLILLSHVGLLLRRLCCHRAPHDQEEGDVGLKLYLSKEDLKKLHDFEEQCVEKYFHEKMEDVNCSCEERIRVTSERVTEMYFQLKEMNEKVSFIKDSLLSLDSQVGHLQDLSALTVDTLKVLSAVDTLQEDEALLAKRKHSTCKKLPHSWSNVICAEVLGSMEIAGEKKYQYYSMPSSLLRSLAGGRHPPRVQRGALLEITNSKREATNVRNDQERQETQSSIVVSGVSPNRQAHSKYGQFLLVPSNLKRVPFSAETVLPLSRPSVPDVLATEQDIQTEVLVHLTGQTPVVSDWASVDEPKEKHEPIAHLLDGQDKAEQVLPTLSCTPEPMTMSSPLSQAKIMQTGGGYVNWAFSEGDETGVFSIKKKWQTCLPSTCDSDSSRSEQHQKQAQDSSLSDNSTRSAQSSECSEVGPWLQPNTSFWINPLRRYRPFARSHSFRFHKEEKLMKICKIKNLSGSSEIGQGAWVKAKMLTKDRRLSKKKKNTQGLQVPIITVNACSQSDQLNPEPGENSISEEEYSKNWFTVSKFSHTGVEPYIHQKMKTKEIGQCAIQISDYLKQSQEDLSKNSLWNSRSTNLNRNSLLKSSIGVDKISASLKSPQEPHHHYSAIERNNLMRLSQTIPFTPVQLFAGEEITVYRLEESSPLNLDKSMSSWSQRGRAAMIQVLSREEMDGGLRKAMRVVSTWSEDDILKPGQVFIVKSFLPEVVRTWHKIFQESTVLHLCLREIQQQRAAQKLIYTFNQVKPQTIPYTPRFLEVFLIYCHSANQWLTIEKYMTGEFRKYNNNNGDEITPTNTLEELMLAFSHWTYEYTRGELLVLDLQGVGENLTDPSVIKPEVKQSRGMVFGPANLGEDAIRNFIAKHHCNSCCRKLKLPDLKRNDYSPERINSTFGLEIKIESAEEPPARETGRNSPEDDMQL
Description: as §1

TYRO3 = TYRO3 (Homo sapiens, UniProt Q06418)
TYRO3, sequence (Q06418 whole entry): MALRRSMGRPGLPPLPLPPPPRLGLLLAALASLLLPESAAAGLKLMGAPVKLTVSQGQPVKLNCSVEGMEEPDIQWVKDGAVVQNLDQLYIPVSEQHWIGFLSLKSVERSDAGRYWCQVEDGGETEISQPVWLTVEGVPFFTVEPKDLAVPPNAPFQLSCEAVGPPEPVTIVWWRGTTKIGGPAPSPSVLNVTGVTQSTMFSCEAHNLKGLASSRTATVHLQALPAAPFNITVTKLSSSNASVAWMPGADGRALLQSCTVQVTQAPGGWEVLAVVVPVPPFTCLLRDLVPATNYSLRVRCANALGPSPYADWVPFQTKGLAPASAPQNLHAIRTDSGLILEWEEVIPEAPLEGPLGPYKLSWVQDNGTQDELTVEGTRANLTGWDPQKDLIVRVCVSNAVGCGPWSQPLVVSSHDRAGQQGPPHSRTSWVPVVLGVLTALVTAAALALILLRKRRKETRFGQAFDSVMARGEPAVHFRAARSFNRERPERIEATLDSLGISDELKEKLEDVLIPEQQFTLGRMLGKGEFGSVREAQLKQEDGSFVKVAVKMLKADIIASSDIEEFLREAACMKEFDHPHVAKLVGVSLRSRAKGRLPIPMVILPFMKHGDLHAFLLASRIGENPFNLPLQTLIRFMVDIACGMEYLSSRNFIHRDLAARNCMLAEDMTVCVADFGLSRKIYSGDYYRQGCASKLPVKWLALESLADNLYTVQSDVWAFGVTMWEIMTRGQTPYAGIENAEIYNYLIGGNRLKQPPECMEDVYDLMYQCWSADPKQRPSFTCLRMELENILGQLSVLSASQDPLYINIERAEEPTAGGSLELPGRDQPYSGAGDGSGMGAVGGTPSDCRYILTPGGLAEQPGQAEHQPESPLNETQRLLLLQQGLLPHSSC
Description: as §1

ULK3 = ULK3 (Homo sapiens, UniProt Q6PHR2)
Description: as §1

WEE1 = WEE1 (Homo sapiens, UniProt P30291)
Description: as §1

Row | Structure (SMILES) | remaining binding at 10 µM [1] [%] | remaining binding at 10 µM [2] [%] | remaining binding at 10 µM (BIKE) [%] | remaining binding at 10 µM (BMPR1A) [%] | remaining binding at 10 µM (BRK) [%] | remaining binding at 10 µM (CAMKK1) [%] | remaining binding at 10 µM (CDK3) [%] | remaining binding at 10 µM (EPHA3) [%] | remaining binding at 10 µM (HIPK2) [%] | remaining binding at 10 µM (MAP3K15) [%] | remaining binding at 10 µM (MARK2) [%] | remaining binding at 10 µM (NEK1) [%] | remaining binding at 10 µM (PHKG1) [%] | remaining binding at 10 µM (PKAC-alpha) [%] | remaining binding at 10 µM (PRKG1) [%] | remaining binding at 10 µM (RIPK2) [%] | remaining binding at 10 µM (SGK3) [%] | remaining binding at 10 µM (SYK) [%] | remaining binding at 10 µM (TGFBR1) [%] | remaining binding at 10 µM (TRPM6) [%] | other results
1 | COc1ccc(-c2cnccc2-c2cnc(NC(=O)C(C)C)s2)c(C(F)(F)F)c1 [CRT0105446, N-{5-[3-(4-Methoxy-2-trifluoromethyl-phenyl)-pyridin-4-yl]-hiazol-2-yl}-isobutyramide] | 89 | 99 | 100 | 100 | 100 | 82 | 24 | 87 | 92 | 93 | 63 | 100 | 78 | 100 | 100 | 80 | 95 | 100 | 99 | 94 | remaining binding at 10 µM (TYRO3): 100%; remaining binding at 10 µM (ULK3): 100%; remaining binding at 10 µM (WEE1): 87%
2 | Cc1ccc(-c2cnccc2-c2cnc(Nc3ccc(O)cc3)s2)c(Cl)c1 [CRT0105950, 4-{5-[3-(2-Chloro-4-methyl-phenyl)-pyridin-4-yl]-thiazol-2-ylamino}-phenol] | 67 | 79 | 36 | 91 | 100 | 26 | 7.7 | 71 | 55 | 82 | 28 | 81 | 56 | 41 | 72 | 18 | 72 | 100 | 74 | 93 | remaining binding at 10 µM (TYRO3): 51%; remaining binding at 10 µM (ULK3): 68%; remaining binding at 10 µM (WEE1): 48%
